{"source": "patent US20240148821A1", "about": "“PHARMACEUTICAL USE OF CYCLIC PEPTIDE COMPOUND” (CHUGAI SEIYAKU KABUSHIKI KAISHA, priority 2021, published 2024)", "note": "Bridge positions count the residues as written; N and C are the ends. Square brackets hold non-standard residues; d marks the D form. Peptide text beside a SMILES is read from it. * marks the point of attachment. NMeAbu(3,3-F2-piperidino) = CN[C@@H](CCN1CCCC(F)(F)C1)C(=O)O; hPhe(3-Cl-4-CF3) = N[C@@H](CCc1ccc(C(F)(F)F)c(Cl)c1)C(=O)O; Phe(3-CF3) = N[C@@H](Cc1cccc(C(F)(F)F)c1)C(=O)O; NMePhe(4-Me) = CN[C@@H](Cc1ccc(C)cc1)C(=O)O; NMeGly(cPent) = CN[C@H](C(=O)O)C1CCCC1; Phe(3-I) = N[C@@H](Cc1cccc(I)c1)C(=O)O; NMeCha = CN[C@@H](CC1CCCCC1)C(=O)O; NMeChg = CN[C@H](C(=O)O)C1CCCCC1; NMeI = CC[C@H](C)[C@H](NC)C(=O)O; NMeD = CN[C@@H](CC(=O)O)C(=O)O; NMeL = CN[C@@H](CC(C)C)C(=O)O; NMeNva = CCC[C@H](NC)C(=O)O; NMeV = CN[C@H](C(=O)O)C(C)C; NMeA = CN[C@@H](C)C(=O)O; NMeAib = CNC(C)(C)C(=O)O; Piperidide = C1CCN(*)CC1; dNMeA = CN[C@H](C)C(=O)O; Ac5c = NC1(C(=O)O)CCCC1; Aze = O=C(O)[C@@H]1CCN1; Sar = CNCC(=O)O", "data": [{"tested_on": "Human pancreatic cancer cell line AsPC-1 (G12D mutation Kras)", "assay": "AsPC-1 cell growth inhibition (AsPC-1 CGI)", "assay_type": "cell-based", "conditions": "read-out: AsPC-1 cell growth inhibition, 50% growth inhibitory concentration (IC50 value); 96 hours, CellTiter-Glo, values classified in ranges", "units": {"IC50": "nM"}, "method": "Test compounds were serially dilated with dimethyl sulfoxide, and 200 nL was then dispensed to a U-bottom 96-well plate using Labcyte Echo. […] The cell suspension was dispensed to a. plate containing a test compound at 100 μL per well and incubated at 37° C. in a 5% carbon dioxide gas incubator. 96 hours later, 80 μL of CellTiter-Glo (Promega) was added to each well and fluorescence was measured.", "values": [{"smiles": "CC[C@H](C)[C@@H]1NC(=O)[C@H](CC(C)C)N(C)C(=O)C[C@@H](C(=O)N(C)C)N(C)C(=O)[C@H](C2CCCC2)N(C)C(=O)C2(CCCC2)NC(=O)[C@@H]2CCCN2C(=O)[C@H](CCc2ccc(C(F)(F)F)c(Cl)c2)NC(=O)CN(C)C(=O)[C@H](Cc2ccc(C)cc2)N(C)C(=O)[C@@H]2CCN2C(=O)[C@H](C)NC1=O", "note": "[Compound 363] ([NMeL]IA[Aze][NMePhe(4-Me)][Sar][hPhe(3-Cl-4-CF3)]P[Ac5c][NMeGly(cPent)][NMeD]-NMe2; lactam N-11)", "IC50": "≤ 20"}, {"smiles": "CC[C@H](C)[C@@H]1NC(=O)[C@H](CC(C)C)NC(=O)C[C@@H](C(=O)N2CCCCC2)N(C)C(=O)[C@H](C(C)C)N(C)C(=O)C2(CCCC2)NC(=O)[C@@H]2CCCN2C(=O)[C@H](CCc2ccc(C(F)(F)F)c(Cl)c2)NC(=O)CN(C)C(=O)[C@H](CC2CCCCC2)N(C)C(=O)[C@@H]2CCN2C(=O)[C@H](C)N(C)C1=O", "note": "[Compound 368] (LI[NMeA][Aze][NMeCha][Sar][hPhe(3-Cl-4-CF3)]P[Ac5c][NMeV][NMeD]-Piperidide; lactam N-11)", "IC50": "> 500"}, {"smiles": "CC[C@H](C)[C@@H]1NC(=O)[C@H](CC(C)C)N(C)C(=O)C[C@@H](C(=O)N2CCCCC2)N(C)C(=O)[C@H](CC(C)C)NC(=O)C(C)(C)N(C)C(=O)[C@H](Cc2cccc(C(F)(F)F)c2)NC(=O)[C@H](Cc2cccc(I)c2)NC(=O)CN(C)C(=O)[C@H](Cc2ccc(C)cc2)N(C)C(=O)CN(C)C(=O)CN(C)C1=O", "note": "[Compound 376] ([NMeL]I[Sar][Sar][NMePhe(4-Me)][Sar][Phe(3-I)][Phe(3-CF3)][NMeAib]L[NMeD]-Piperidide; lactam N-11)", "IC50": "> 500"}, {"smiles": "CC[C@H](C)[C@@H]1NC(=O)[C@H](CC(C)C)N(C)C(=O)C[C@@H](C(=O)N(C)C)N(C)C(=O)[C@H]([C@@H](C)CC)N(C)C(=O)C2(CCCC2)NC(=O)[C@H](C)N(C)C(=O)[C@H](CCc2ccc(C(F)(F)F)c(Cl)c2)NC(=O)CN(C)C(=O)[C@H](Cc2ccc(C)cc2)N(C)C(=O)[C@@H]2CCN2C(=O)[C@H](C)N(C)C1=O", "note": "[Compound 378] ([NMeL]I[NMeA][Aze][NMePhe(4-Me)][Sar][hPhe(3-Cl-4-CF3)][NMeA][Ac5c][NMeI][NMeD]-NMe2; lactam N-11)", "IC50": "≤ 20"}, {"smiles": "CC[C@H](C)[C@@H]1NC(=O)[C@H](CC(C)C)N(C)C(=O)C[C@@H](C(=O)N(C)C)N(C)C(=O)[C@H]([C@@H](C)CC)N(C)C(=O)[C@H](C(C)C)NC(=O)[C@H](CCN2CCCC(F)(F)C2)N(C)C(=O)[C@H](CCc2ccc(C(F)(F)F)c(Cl)c2)NC(=O)CN(C)C(=O)[C@H](Cc2ccc(C)cc2)N(C)C(=O)[C@@H]2CCN2C(=O)[C@H](C)N(C)C1=O", "note": "[Compound 379] ([NMeL]I[NMeA][Aze][NMePhe(4-Me)][Sar][hPhe(3-Cl-4-CF3)][NMeAbu(3,3-F2-piperidino)]V[NMeI][NMeD]-NMe2; lactam N-11)", "IC50": "> 500"}, {"smiles": "CC[C@H](C)[C@@H]1NC(=O)[C@H](C)N(C)C(=O)C[C@@H](C(=O)N2CCCCC2)N(C)C(=O)[C@H](C(C)C)N(C)C(=O)C2(CCCC2)NC(=O)[C@@H]2CCCN2C(=O)[C@H](CCc2ccc(C(F)(F)F)c(Cl)c2)NC(=O)[C@@H](C)N(C)C(=O)[C@H](CC2CCCCC2)N(C)C(=O)CN(C)C(=O)CN(C)C1=O", "note": "[Compound 380] ([NMeA]I[Sar][Sar][NMeCha][dNMeA][hPhe(3-Cl-4-CF3)]P[Ac5c][NMeV][NMeD]-Piperidide; lactam N-11)", "IC50": "> 500"}, {"smiles": "CC[C@H](C)[C@@H]1NC(=O)[C@H](CC(C)C)N(C)C(=O)C[C@@H](C(=O)N(C)C)N(C)C(=O)[C@H]([C@@H](C)CC)N(C)C(=O)[C@H](C)NC(=O)[C@@H](C)NC(=O)[C@H](CCc2ccc(C(F)(F)F)c(Cl)c2)NC(=O)CN(C)C(=O)[C@H](Cc2ccc(C)cc2)N(C)C(=O)[C@@H]2CCN2C(=O)[C@H](C)N(C)C1=O", "note": "[Compound 382] ([NMeL]I[NMeA][Aze][NMePhe(4-Me)][Sar][hPhe(3-Cl-4-CF3)][dA]A[NMeI][NMeD]-NMe2; lactam N-11)", "IC50": "> 500"}, {"smiles": "CC[C@H](C)[C@@H]1NC(=O)[C@H](CC(C)C)N(C)C(=O)C[C@@H](C(=O)N(C)C)N(C)C(=O)[C@H](C2CCCC2)N(C)C(=O)[C@H](C(C)C)NC(=O)[C@H](CCN2CCCC(F)(F)C2)N(C)C(=O)[C@H](CCc2ccc(C(F)(F)F)c(Cl)c2)NC(=O)CN(C)C(=O)[C@H](CC2CCCCC2)N(C)C(=O)[C@@H]2CCN2C(=O)[C@H](C)N(C)C1=O", "note": "[Compound 389] ([NMeL]I[NMeA][Aze][NMeCha][Sar][hPhe(3-Cl-4-CF3)][NMeAbu(3,3-F2-piperidino)]V[NMeGly(cPent)][NMeD]-NMe2; lactam N-11)", "IC50": "> 500"}, {"smiles": "CCC[C@H]1C(=O)N[C@@H]([C@@H](C)CC)C(=O)N(C)[C@@H](C)C(=O)N2CC[C@H]2C(=O)N(C)[C@@H](CC2CCCCC2)C(=O)N(C)CC(=O)N[C@@H](CCc2ccc(C(F)(F)F)c(Cl)c2)C(=O)N2CCC[C@H]2C(=O)NC2(CCCC2)C(=O)N(C)[C@@H](C2CCCC2)C(=O)N(C)[C@H](C(=O)N2CCCCC2)CC(=O)N1C", "note": "[Compound 391] ([NMeNva]I[NMeA][Aze][NMeCha][Sar][hPhe(3-Cl-4-CF3)]P[Ac5c][NMeGly(cPent)][NMeD]-Piperidide; lactam N-11)", "IC50": "≤ 20"}, {"smiles": "CCC[C@H]1C(=O)NC2(CCCC2)C(=O)N(C)[C@@H](C2CCCCC2)C(=O)N(C)[C@H](C(=O)N2CCCCC2)CC(=O)N(C)[C@@H](CC(C)C)C(=O)N[C@@H]([C@@H](C)CC)C(=O)N(C)CC(=O)N2CCC[C@H]2C(=O)N(C)[C@@H](CC2CCCCC2)C(=O)N(C)CC(=O)N[C@@H](CCc2ccc(C(F)(F)F)c(Cl)c2)C(=O)N1C", "note": "[Compound 392] ([NMeL]I[Sar]P[NMeCha][Sar][hPhe(3-Cl-4-CF3)][NMeNva][Ac5c][NMeChg][NMeD]-Piperidide; lactam N-11)", "IC50": "> 500"}]}]}
